This data set in a line: Water solubility: distilled water added to a weighed amount until a clear solution was obtained. Format: physicochemical. As to conditions: for solubility: thermodynamic from solid, distilled water, weight in mg divided by volume of the clear solution in mL. As for the experimental part:
Measurement of the water solubility of the test compounds is accomplished by using methods well known to those skilled in the art. Specifically, to a weighed amount of the test compound of the example compound Formula I (Ib) distilled water was added in small proportions until a clear solution was obtained. The total volume of the solution is measured. The water solubility is calculated by dividing the weight of the salt, in milligrams (mg), by the volume of the solution, in mL. […] The compound of Formula I (Ib) is therefore, at least 368 times more soluble in water than EPA itself. This is a clear indication of an unexpectedly high degree of bioavailability of the compositions of the invention. Highly water soluble medicinal preparations, when administered orally, result in efficient absorption from the gastrointestinal tract in to systemic circulation. Furthermore, water soluble preparations are especially suitable for parenteral administration.

Bounds are passed on as bounds.

Broadly, the solubility is how much of the substance goes into solution per volume. Consider `CC/C=C\C/C=C\C/C=C\C/C=C\C/C=C\CCCC(=O)OCC1OC(O)(CO)C(O)C1O` (stereo not drawn) [Formula I (Ib)], for which the solubility is 68.6 mg/mL. Also, for the setting “ratio of water solubility versus EPA”, the “times more soluble in water than EPA” value is reported as “at least 368 times”.

Regarding `CC/C=C\C/C=C\C/C=C\C/C=C\C/C=C\CCCC(=O)O` [EPA, Eicosapentaenoic Acid, reference compound], the solubility was under 0.2 mg/mL.
